Where “and” joins values, the source holds several entries; their conditions need not be identical. Equal values may be shown once. Records with an inconclusive call do not appear.
System: BDF1 mice, colon carcinoma 38 sc, T/C %
Test: NCI In Vivo Anticancer Drug Screen. Data for tumor model Colon Carcinoma 38 (subcutaneous) in B6D2F1 (BDF1) mice
Conditions: endpoint: median tumor weight (est.), higher = larger tumour
Summary of the method: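 Mice with transplanted tumors are treated with compound or vehicle. Survival or tumor size is then measured in both groups. The ratio of treated to control gives the reported figure.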

SMILES: COc1ccc(-c2csc(=[N+]3CCCCC3)s2)cc1
- T/C (dose: 3.13 mg/kg/injection, schedule: Q07DX002 (ip), vehicle: water): 107 % of control
- T/C (dose: 6.25 mg/kg/injection, schedule: Q07DX002 (ip), vehicle: water): 105 % of control
- T/C (dose: 12.5 mg/kg/injection, schedule: Q07DX002 (ip), vehicle: water): 116 % of control
- T/C (dose: 25.0 mg/kg/injection, schedule: Q07DX002 (ip), vehicle: water): 123 % of control
- T/C (dose: 50.0 mg/kg/injection, schedule: Q07DX002 (ip), vehicle: water): 121 % of control

SMILES: O=C(Nc1nncs1)c1ccncc1
- T/C (dose: 12.5 mg/kg/injection, schedule: Q07DX002 (ip), vehicle: saline with Tween-80): 93 % of control and 98 % of control
- T/C (dose: 50.0 mg/kg/injection, schedule: Q07DX002 (ip), vehicle: saline with Tween-80): 91 % of control and 96 % of control
- T/C (dose: 100.0 mg/kg/injection, schedule: Q07DX002 (ip), vehicle: saline with Tween-80): 102 % of control
- T/C (dose: 200.0 mg/kg/injection, schedule: Q07DX002 (ip), vehicle: saline with Tween-80): 81 % of control
- T/C (dose: 400.0 mg/kg/injection, schedule: Q07DX002 (ip), vehicle: saline with Tween-80): 69 % of control and 93 % of control

SMILES: COc1ccc(C(=O)/C(Br)=C/C(=O)O)cc1
- T/C (dose: 4.0 mg/kg/injection, schedule: Q07DX002 (ip), vehicle: saline): 104 % of control
- T/C (dose: 8.0 mg/kg/injection, schedule: Q07DX002 (ip), vehicle: saline): 98 % of control
- T/C (dose: 16.0 mg/kg/injection, schedule: Q07DX002 (ip), vehicle: saline): 104 % of control
- T/C (dose: 32.0 mg/kg/injection, schedule: Q07DX002 (ip), vehicle: saline): 71 % of control

SMILES: CCN(CC)CCNc1ccc(CO)c2sc3ccccc3c(=O)c12
- T/C (dose: 6.25 mg/kg/injection, schedule: Q07DX003 (ip), vehicle: clinical formulation): 120 % of control
- T/C (dose: 6.25 mg/kg/injection, schedule: Q07DX003 (ip), vehicle: water): 90 % of control
- T/C (dose: 12.5 mg/kg/injection, schedule: Q07DX003 (ip), vehicle: clinical formulation): 116 % of control
- T/C (dose: 12.5 mg/kg/injection, schedule: Q07DX003 (ip), vehicle: water): 103 % of control
- T/C (dose: 25.0 mg/kg/injection, schedule: Q07DX003 (ip), vehicle: clinical formulation): 77 % of control
- T/C (dose: 25.0 mg/kg/injection, schedule: Q07DX003 (ip), vehicle: water): 114 % of control
- T/C (dose: 50.0 mg/kg/injection, schedule: Q07DX003 (ip), vehicle: clinical formulation): 63 % of control
- T/C (dose: 50.0 mg/kg/injection, schedule: Q07DX003 (ip), vehicle: water): 30 % of control
- T/C (dose: 100.0 mg/kg/injection, schedule: Q07DX003 (ip), vehicle: clinical formulation): 14 % of control
- T/C (dose: 100.0 mg/kg/injection, schedule: Q07DX003 (ip), vehicle: water): 11 % of control

SMILES: CCCCCCCCCCS(=O)CC(CO)NC(=O)/C=C/c1c(C)[nH]c(=O)[nH]c1=O (stereo not drawn)
- T/C (dose: 1.5 mg/kg/injection, schedule: Q07DX002 (ip), vehicle: distilled water + Tween-80): 76 % of control and 96 % of control
- T/C (dose: 3.0 mg/kg/injection, schedule: Q07DX002 (ip), vehicle: distilled water + Tween-80): 109 % of control and 96 % of control
- T/C (dose: 12.0 mg/kg/injection, schedule: Q07DX002 (ip), vehicle: distilled water + Tween-80): 112 % of control and 115 % of control
- T/C (dose: 48.0 mg/kg/injection, schedule: Q07DX002 (ip), vehicle: distilled water + Tween-80): 80 % of control

SMILES: Nc1ccccc1N
- T/C (dose: 12.5 mg/kg/injection, schedule: Q07DX002 (ip), vehicle: Klucel (hydroxypropylcellulose) (HPC)): 75 % of control and 91 % of control
- T/C (dose: 25.0 mg/kg/injection, schedule: Q07DX002 (ip), vehicle: Klucel (hydroxypropylcellulose) (HPC)): 122 % of control and 102 % of control
- T/C (dose: 50.0 mg/kg/injection, schedule: Q07DX002 (ip), vehicle: Klucel (hydroxypropylcellulose) (HPC)): 91 % of control
- T/C (dose: 400.0 mg/kg/injection, schedule: Q07DX002 (ip), vehicle: Klucel (hydroxypropylcellulose) (HPC)): 54 % of control

SMILES: O=[N+]([O-])O.[Ga]
- T/C (dose: 12.5 mg/kg/injection, schedule: Q07DX003 (ip), vehicle: saline): 122 % of control
- T/C (dose: 25.0 mg/kg/injection, schedule: Q07DX002 (ip), vehicle: saline): 159 % of control
- T/C (dose: 25.0 mg/kg/injection, schedule: Q07DX003 (ip), vehicle: saline): 121 % of control
- T/C (dose: 50.0 mg/kg/injection, schedule: Q07DX002 (ip), vehicle: saline): 78 % of control
- T/C (dose: 100.0 mg/kg/injection, schedule: Q07DX002 (ip), vehicle: saline): 81 % of control
- T/C (dose: 100.0 mg/kg/injection, schedule: Q07DX003 (ip), vehicle: saline): 44 % of control

Source: PubChem BioAssay AID212 (DTP/NCI, 2004)
